Experimental data from publication PMC6412401 (Molecules, 2019).
Entries after “also recorded” stand apart in the source; their conditions may differ.

What was measured:
Assay type in all cases: biochemical
[1] = molecular target: T1, recombinant human MAO-A (Homo sapiens, UniProt P21397); assay: MAO-A inhibition assay (kynuramine oxidative deamination); conditions: kynuramine 80 μM; mean ± S.D. of at least triplicate observations
T1 construct: purchased BD Biosciences (Bedford, MA, USA)
T1 sequence (P21397 1-527): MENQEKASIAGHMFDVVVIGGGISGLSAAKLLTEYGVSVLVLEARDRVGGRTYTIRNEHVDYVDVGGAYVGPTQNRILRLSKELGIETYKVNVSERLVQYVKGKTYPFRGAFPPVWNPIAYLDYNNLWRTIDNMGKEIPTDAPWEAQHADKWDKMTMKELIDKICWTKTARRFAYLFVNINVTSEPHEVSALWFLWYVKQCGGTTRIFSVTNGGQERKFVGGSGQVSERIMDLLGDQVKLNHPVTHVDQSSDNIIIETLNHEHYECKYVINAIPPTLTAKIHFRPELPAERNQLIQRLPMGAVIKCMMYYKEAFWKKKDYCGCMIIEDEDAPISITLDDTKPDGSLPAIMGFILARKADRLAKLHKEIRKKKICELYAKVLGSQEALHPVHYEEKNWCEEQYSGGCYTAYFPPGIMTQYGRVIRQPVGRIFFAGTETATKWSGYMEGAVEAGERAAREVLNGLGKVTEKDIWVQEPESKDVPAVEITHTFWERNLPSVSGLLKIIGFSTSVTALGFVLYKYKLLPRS
Description: (§1) To investigate the effect of the isolated constituents from T. diffusa on recombinant human MAO-A and MAO-B, the kynuramine oxidative deamination assay was performed in 384-well plates, as previously reported, with minor modifications. A single fixed concentration of kynuramine substrate and varying concentrations of inhibitor were used to test enzyme inhibition and determine the IC50 values. Kynuramine concentrations for MAO-A and MAO-B were 80 μM and 50 μM, respectively. These concentrations of kynuramine were twice the apparent KM value for substrate binding. The concentrations that were tested for pure constituents were from 0.01 to 100 μM, for MAO-A and MAO-B inhibition assays. Reactions were performed in a clear 384-well microplate (50 μL) with 0.1 M potassium phosphate buffer, pH 7.4. The inhibitors and compounds were dissolved in DMSO, diluted in the buffer solution, and pre-incubated at 37 °C for 10 min (no more than 1.0% DMSO final concentration). […] The enzyme product 4-hydroxyquinoline formation was recorded fluorometrically using a SpectraMax M5 fluorescence plate reader (Molecular Devices, Sunnyvale, CA, USA) with an excitation (320 nm) and emission (380 nm) wavelength, using the SoftMaxPro 6.0 program. The inhibition effects of enzyme activity were calculated as a percent of product formation when compared to the corresponding control (enzyme-substrate reaction) without inhibitors. Controls, including samples in which the enzyme or the substrate was added after stopping the reactions, were simultaneously checked to determine the interference of inherent fluorescence of the test compounds with the measurements. IC50 values for MAO-A and MAO-B inhibition were calculated from the concentration dependent inhibition curves using XLfit, a Microsoft Excel-based plug-in which performs Regression, curve fitting and statistical analysis (IDBS, Bridgewater, NJ, USA).
(§2) The dose-response curves were generated using Microsoft® Excel and the IC50 values were analyzed using XLfit software.

[2] = molecular target: T2, recombinant human MAO-B (Homo sapiens, UniProt P27338); assay: Enzyme kinetics and mechanism studies (Lineweaver-Burk); conditions: for Type of Inhibition Monoamine Oxidase-B: mechanism / reversibility
T2 construct: purchased BD Biosciences (Bedford, MA, USA)
T2 sequence (P27338 1-520): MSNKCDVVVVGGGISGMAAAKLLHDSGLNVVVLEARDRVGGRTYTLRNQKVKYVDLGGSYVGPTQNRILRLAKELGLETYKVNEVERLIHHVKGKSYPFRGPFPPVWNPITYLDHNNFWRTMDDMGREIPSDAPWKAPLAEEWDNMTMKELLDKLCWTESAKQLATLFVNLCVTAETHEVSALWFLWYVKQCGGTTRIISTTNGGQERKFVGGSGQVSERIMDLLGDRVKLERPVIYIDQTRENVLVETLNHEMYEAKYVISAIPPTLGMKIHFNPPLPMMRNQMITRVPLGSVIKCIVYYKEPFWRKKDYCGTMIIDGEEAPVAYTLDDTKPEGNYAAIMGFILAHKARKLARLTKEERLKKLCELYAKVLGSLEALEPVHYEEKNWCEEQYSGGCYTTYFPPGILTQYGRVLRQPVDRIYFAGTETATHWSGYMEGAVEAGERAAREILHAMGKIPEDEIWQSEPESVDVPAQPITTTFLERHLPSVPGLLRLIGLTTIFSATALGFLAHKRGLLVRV
Description: The assays were run at varying concentrations of the substrate and fixed concentrations of the inhibitor. The Ki (i.e., inhibition/binding affinity) values were computed with double reciprocal Lineweaver–Burk plots.
The controls without inhibitor were also simultaneously run. The results were analyzed by standard double reciprocal Line–Weaver Burk plots for computing Km and Vmax values, which were further analyzed to determine Ki values.

[3] = molecular target: T2, recombinant human MAO-B; assay: Time-dependent assay for enzyme inhibition; conditions: 0.500 μM; pre-incubation 0–15 min
Description: The control without inhibitors was also run simultaneously. The activity of the enzyme was determined, as described above, and the percentage of enzyme activity remaining was plotted against the pre-incubation time to determine the time-dependence of inhibition.
The controls without inhibitors were also simultaneously run. The activities of the enzymes were determined, as described above, and the percentage of enzyme activity remaining was plotted against the pre-incubation time to determine the time-dependence of inhibition.

[4] = molecular target: T2, recombinant human MAO-B; assay: Reversibility of binding, enzyme-inhibitor complex equilibrium dialysis
Description: The activity of the enzyme was analyzed before and after the dialysis (Figure 4).
The inhibitors bind with the target enzyme through the formation of an enzyme-inhibitor complex. The formation of the enzyme-inhibitor complex may be accelerated in the presence of the high concentration of the inhibitor. […] After 20 min incubation at 37 °C, the reaction was stopped by chilling in an ice bath. All of the samples were dialyzed against potassium phosphate buffer (25 mM; pH 7.4) at 4 °C for 14–18 h (three buffer changes). Control enzyme (without inhibitor) was also run through the same procedure and the activity of the enzyme was determined before and after the dialysis.

[5] = molecular target: T2, recombinant human MAO-B; assay: MAO-B inhibition assay (kynuramine oxidative deamination); conditions: for SI MAO-A/-B: Selectivity Index = IC50 MAO-A/IC50 MAO-B; for IC50: kynuramine 50 μM, mean ± S.D. of at least triplicate observations
Description: as §1, §2

Structure (SMILES) | IC50 [1] [µM] | Type of Inhibition Monoamine Oxidase-B [2] | Type of Inhibition Monoamine Oxidase-B ([2]; listed as acacetin 7-methyl ether) | Ki ([2]; varying kynuramine, mean ± S.D. of triplicate experiments, read-out: Ki Monoamine Oxidase-B) [µM] | time dependence of binding/inhibition of MAO-B [3] | inhibition of MAO-B activity after incubation, before dialysis ([4]; 1.0 and 2.0 μM, 20 min incubation) [%] | activity of the enzyme recovered after equilibrium dialysis ([4]; 1.0 and 2.0 μM, dialyzed overnight) | reversibility of binding to MAO-B ([4]; equilibrium dialysis) | selectivity for MAO-B over MAO-A [5] [fold] | SI MAO-A/-B [5] | plateau of concentration-dependent inhibition of MAO-B ([5]; higher concentrations, ~20% activity remaining) | IC50 [5] [µM]
COc1ccc(-c2cc(=O)c3c(O)cc(OC)cc3o2)cc1 [Acacetin 7-methyl ether, 5-hydroxy-4′, 7-dimethoxyflavone] | > 100 | Competitive/Partially Reversible | reversible competitive inhibitor | 0.045 ± 0.003 | time-independent; also recorded: not dependent on the pre-incubation time | > 60 | ~ 80% | partially reversible | > 500 | >505.051 | ~ 80 % inhibition | 0.198 ± 0.001
COc1ccc(-c2cc(=O)c3c(O)cc(O)cc3o2)cc1 [Acacetin] | 0.115 ± 0.004 | Competitive/Reversible | – | – | – | – | – | – | – | – | – | –
O=C(/C=C/c1ccc(O)cc1)OC[C@H]1O[C@@H](Oc2cc(O)c3c(=O)cc(-c4ccc(O)cc4)oc3c2)[C@H](O)[C@@H](O)[C@@H]1O [Apigenin-7-O-β-D-(6-O-p-coumaroyl) glucoside] | 22.5 ± 4.44 | – | – | – | – | – | – | – | – | 1.023 | – | 22 ± 1.76
C[C@@H]1O[C@@H](O[C@@H]2[C@@H](O)[C@H](O)[C@@H](CO)O[C@H]2c2c(O)cc(O)c3c(=O)cc(-c4ccc(O)cc4)oc23)[C@H](O)[C@H](O)[C@H]1O [Rhamnosylvitexin] | 40.9 ± 6.81 | – | – | – | – | – | – | – | – | 1.557 | – | 26.3 ± 0.277
COc1cc(-c2cc(=O)c3c(O)cc(O[C@@H]4O[C@H](CO)[C@@H](O)[C@H](O)[C@H]4O)cc3o2)cc(OC)c1O [Tricin-7-glucoside] | 50.9 ± 0.506 | – | – | – | – | – | – | – | – | 1.854 | – | 27.4 ± 0.819
COc1cc(O)c2c(=O)cc(-c3ccc(O)c(OC)c3)oc2c1 [Vetulin] | 18.8 ± 0.291 | – | – | – | – | – | – | – | – | 42.056 | – | 0.447 ± 0.01
